According to US5747235A, “Silver halide light sensitive emulsion layer having enhanced photographic sensitivity” (Eastman Kodak Company, priority 1996, dated 1998):
Where a name gives a salt, the structure may show the parent alone.

Assays:
[1] = Example 10: photographic sensitivity and fog, color format, blue sensitized emulsion T-2; details: for Photographic Sensitivity SWR2B: control=100
Protocol: The hydroxybenzene, 2,4-disulfocatechcol (HB3) at a concentration of 13×10^-3 mole/mole Ag was added to the emulsion melt before the start of the chemical sensitization procedure. […] The fragmentable two-electron donors S-3, S-9, S-6, or S-8 were then added to the emulsion melt.
The melts were prepared for coating by adding additional water, deionized gelatin and coating surfactants. Coatings were prepared by combining the emulsion melts with a melt containing deionized gelatin and an aqueous dispersion of the cyan-forming color coupler CC-1 and coating the resulting mixture on acetate support. […] The structure of the color coupler CC-1 is given below: [drawing 120]
(§1) For photographic evaluation, each of the coating strips was exposed for 0.01 sec to a 3000K color temperature tungsten lamp filtered to give an effective color temperature of 5500K and further filtered through a Kodak Wratten filter number 2B, and a step wedge ranging in density from 0 to 4 density units in 0.20 density steps. This exposure gives light absorbed mainly by the blue sensitizing dye. The exposed film strips were developed for 31/4 minutes in Kodak C-41 color developer. SWR2B, relative sensitivity for this filtered exposure, was evaluated at a cyan density of 0.15 units above fog.

[2] = Example 3: photographic speed and fog, 365 nm exposure, emulsion T-2; design: Fog: unit not given here; details: for effect on dye desensitization: red dyed emulsion (D-II), 365 nm
Protocol: (§2) For photographic evaluation, each of the coating strips was exposed for 0.1 sec to a 365 nm emission line of a Hg lamp filtered through a Kodak Wratten filter number 18A and a step wedge ranging in density from 0 to 4 density units in 0.2 density steps. The exposed film strips were developed for 6 min in Kodak Rapid X-ray Developer (KRX). S365, relative sensitivity at 365 nm, was evaluated at a density of 0.2 units above fog.
This emulsion was precipitated using deionized gelatin. […] The chemically sensitized emulsion was then used to prepare coatings containing the fragmentable two-electron donor compounds. All of the experimental coating variations in Table III contained the hydroxybenzene 2,4-disulfocatechol (HB3) at a concentration of 13 mmole/ mole Ag, added to the melt before the addition of any further addenda. Where present, the blue sensitizing dye D-I or the red sensitizing dye D-II were added from methanol solution to the emulsion at 40° C. after the chemical sensitization and disulfocatechol addition.

[3] = Example 4: photographic speed and fog, 365 nm exposure, blue dyed emulsion T-2; design: Fog: unit not given here; details: for Fog / S365: dye I 0.91 x10^-3; for S365: dyed control=100; for fog change: Table IV
Protocol: as §2
An AgBrI tabular silver halide emulsion (Emulsion T-2) was prepared containing 4.05% total I distributed such that the central portion of the emulsion grains contained 1.5% I and the perimeter area contained substantially higher I, as described by Chang et. al., U.S. Pat. No. 5,314,793. […] This emulsion was precipitated using deionized gelatin. The emulsion was sulfur sensitized by adding 8.5×10^-6 mole 1,3-dicarboxymethyl-1,3-dimethyl-2-thiourea /mole Ag at 40° C.; the temperature was then raised to 60° C. at a rate of 5° C./3 min and the emulsions held for 20 min before cooling to 40° C. The chemically sensitized emulsion was then used to prepare coatings containing the fragmentable two-electron donor compounds. All of the experimental coating variations in Table III contained the hydroxybenzene 2,4-disulfocatechol (HB3) at a concentration of 13 mmole/ mole Ag, added to the melt before the addition of any further addenda. Where present, the blue sensitizing dye D-I or the red sensitizing dye D-II were added from methanol solution to the emulsion at 40° C. after the chemical sensitization and disulfocatechol addition. The fragmentable two-electron donor compounds were added to the emulsion at 40° C. and the coatings were prepared and tested as described in Example 1, except that the additional gelatin used to prepare the coatings described in Table III was deionized gelatin.
The chemically sensitized AgBrI tabular emulsion T-2 as described in Example 3 was used to prepare the experimental coating variations listed in Table IV, comparing various structurally related fragmentable two-electron donating compounds varying in first oxidation potential E1. The blue sensitizing dye D-I was added from methanol solution to the emulsion at 40° C. after the chemical sensitization. The fragmentable two-electron donating compounds were then added to the emulsion and coatings prepared and tested as described in Example 3.

[4] = Example 11: photographic sensitivity and fog, color format, blue sensitized emulsion T-2; details: for Photographic Sensitivity SWR2B: control=100
Protocol: The AgBrI tabular silver halide emulsion T-2 from Example 3 was optimally chemically and spectrally sensitized by adding NaSCN, 1.07 mmole of the blue sensitizing dye D-I per mole of silver, Na3 Au(S2 O3)2 ·2H2 O, Na2 S2 O3 ·5H2 O, and a benzothiazolium finish modifier and then subjecting the emulsion to a heat cycle to 65° C. The hydroxybenzene, 2,4-disulfocatechcol (HB3) at a concentration of 13×10^-3 mole/mole Ag was added to the emulsion melt before the start of the chemical sensitization procedure. This chemically sensitized emulsion was then used to prepare the experimental coating variations given in Table X. For all the variations in Table X, the antifoggant and stabilizer tetraazaindene (TAI) was added to the emulsion melt in an amount of 1.75 g/mole Ag before any further addenda. The fragmentable two-electron donors S-3, S-9, S-6, or S-8 were then added to the emulsion melt.
The melts were prepared for coating by adding additional water, deionized gelatin and coating surfactants. Coatings were prepared by combining the emulsion melts with a melt containing deionized gelatin and an aqueous dispersion of the cyan-forming color coupler CC-1 and coating the resulting mixture on acetate support. The final coatings contained Ag at 0.81 g/m^2, coupler at 1.61 g/m^2, and gelatin at 3.23 g/m^2. The coatings were overcoated with a protective layer containing gelatin at 1.08 g/m^2, coating surfactants, and a bisvinylsulfonylmethyl ether as a gelatin hardening agent. The structure of the color coupler CC-1 is given below: [drawing 120]
as §1
The AgBrI tabular emulsion T-2 as described in Example 3 was sensitized as described in Example 10 except that the hydroxybenzene HB3 was added at the completion of the chemical sensitization procedure. For all the variations in Table XI, the antifoggant and stabilizer tetraazaindene (TAI) was added to the emulsion melt in an amount of 1.75 g/mole Ag before any further addenda. The fragmentable two-electron donors S-12, S-14, S-13, or S-11 were then added to the emulsion melt. The melts were then coated and tested as described in Example 10.

[5] = 0.0022 x10^-3 mole/mole Ag, dye II 0.86 x10^-3
[6] = 0.0022 x10^-3 mole/mole Ag, dye II 0.86 x10^-3, dyed control 68
[7] = 0.007 x10^-3 mole/mole Ag, dye II 0.86 x10^-3
[8] = 0.022 x10^-3 mole/mole Ag, dye I 0.91 x10^-3
[9] = 0.022 x10^-3 mole/mole Ag, dye I 0.91 x10^-3, dyed control 105
[10] = 0.007 x10^-3 mole/mole Ag, dye II 0.86 x10^-3, dyed control 68
[11] = 0.07 x10^-3 mole/mole Ag, dye I 0.91 x10^-3
[12] = 0.07 x10^-3 mole/mole Ag, dye I 0.91 x10^-3, dyed control 105
[13] = 0.07 x10^-3 mole/mole Ag, no dye
[14] = 0.07 x10^-3 mole/mole Ag, no dye, control=100

| SMILES | Fog ([1]; 0.022 x10^-3 mol/mol Ag) | Photographic Sensitivity SWR2B ([1]; 0.022 x10^-3 mol/mol Ag) | Fog ([1]; 0.07 x10^-3 mol/mol Ag) | Photographic Sensitivity SWR2B ([1]; 0.07 x10^-3 mol/mol Ag) | Fog [2, 5] | S365 [2, 6] | Fog [2, 7] | Fog [2, 8] | S365 [2, 9] | effect on dye desensitization [2] | Fog ([3]; 0.22 x10^-3 mole/mole Ag) | S365 ([3]; 0.22 x10^-3 mole/mole Ag) | Fog ([3]; 0.44 x10^-3 mole/mole Ag) | S365 ([3]; 0.44 x10^-3 mole/mole Ag) | Fog ([3]; 0.88 x10^-3 mole/mole Ag) | S365 ([3]; 0.88 x10^-3 mole/mole Ag) | Fog ([4]; 0.22 x10^-3 mol/molAg) | Photographic Sensitivity SWR2B ([4]; 0.22 x10^-3 mol/molAg) | Fog ([4]; 0.44 x10^-3 mol/molAg) | Photographic Sensitivity SWR2B ([4]; 0.44 x10^-3 mol/molAg) | other results |
| --- | --- | --- | --- | --- | --- | --- | --- | --- | --- | --- | --- | --- | --- | --- | --- | --- | --- | --- | --- | --- | --- |
| CCSCCN(c1ccc(C)cc1)[C@@H](C)C(=O)[O-].[Na+] [Compound S-3, N-(4-Methylphenyl)-N-(2-ethylthio-ethyl)alanine sodium salt] | 0.14 | 97 | 0.19 | 110 | 0.28 | 120 | 0.75 | 0.16 | 132 | effective in ameliorating dye desensitization |  |  |  |  |  |  |  |  |  |  | Fog ([2]; 0.022 x10^-3 mole/mole Ag, no dye): 0.13; S365 ([2]; 0.022 x10^-3 mole/mole Ag, no dye, control=100): 151 |
| CCSCCN(c1ccc(C)cc1)C(CC(=O)O)C(=O)O (centres unmarked) [Compound S-8] | 0.14 | 107 | 0.23 | 110 | 0.11 | 97 | 0.15 | 0.07 | 118 | effective in ameliorating dye desensitization |  |  |  |  |  |  |  |  |  |  | S365 [2, 10]: 112; Fog [2, 11]: 0.12; S365 [2, 12]: 120; Fog [2, 13]: 0.13; S365 [2, 14]: 162 |
| CCSCCN(c1ccccc1)C(C)C(=O)O (centres unmarked) [Compound S-9, N-(Phenyl)-N-(2-thioethyl-ethyl)alanine sodium salt] | 0.16 | 162 | 0.19 | 182 | 0.24 | 115 | 0.44 | 0.08 | 159 | effective in ameliorating dye desensitization | 0.21 | 129 | 0.41 | 102 | 0.63 |  |  |  |  |  | fog change [3]: modest increases in fog; S365 [2, 10]: 107; Fog [2, 11]: 0.13; S365 [2, 12]: 162; Fog [2, 13]: 0.13; S365 [2, 14]: 166 |
| CCSCCN(c1ccc(C(=O)O)cc1)C(C)C(=O)O (centres unmarked) [Compound S-11] |  |  |  |  |  |  |  |  |  |  | 0.05 | 145 | 0.06 | 145 | 0.07 | 145 | 0.10 | 166 | 0.09 | 178 |  |
| CCSCCN(c1ccc(Cl)cc1)C(C)C(=O)O (centres unmarked) [Compound S-12, N-(4-Chlorophenyl)-N-(2-thioethyl-ethyl)alanine sodium salt] |  |  |  |  |  |  |  |  |  |  | 0.18 | 145 | 0.21 | 141 | 0.29 | 138 | 0.11 | 191 | 0.16 | 204 | fog change [3]: modest increases in fog |
| CCSCCN(c1cccc(C(N)=O)c1)C(C)C(=O)O (centres unmarked) [Compound S-13] |  |  |  |  |  |  |  |  |  |  | 0.10 | 151 | 0.13 | 151 | 0.14 | 166 | 0.10 | 204 | 0.16 | 209 |  |
| CCSCCN(c1ccccc1)C(CC(=O)O)C(=O)O (centres unmarked) [Compound S-14] |  |  |  |  |  |  |  |  |  |  |  |  |  |  |  |  | 0.09 | 170 | 0.09 | 178 |  |
